Data from PubChem BioAssay AID1053137 (Broad Institute, 2014).

Legend:
[1] = test system: HepG2 PCSK9 mRNA, qRT-PCR, overnight; assay: PCSK9 expression suppression by TRIB1 inducers – cell-based, RT-qPCR, cherry-pick, mechanism study for TRIB1 upregulator project, late-stage follow-up (AID 1053137)
[2] = as above; conditions: HepG2 PCSK9 mRNA, qRT-PCR, overnight; measured here: maximal PCSK9 expression inhibition; stronger effect = higher value

| SMILES | AC50 [1] | inhibition [2] |
| --- | --- | --- |
| CN1C(=O)c2cc(NC(=O)c3ccc(C(F)(F)F)cc3)ccc2OC[C@@H]2O[C@@H](CC(=O)NC3Cc4ccccc4C3)CC[C@@H]21 | 870 nM | 87% |
| CN1C(=O)c2cc(NC(=O)c3ccc(C(F)(F)F)cc3)ccc2OC[C@@H]2O[C@H](CC(=O)NC3Cc4ccccc4C3)CC[C@@H]21 | 110 nM | 85% |
